Assays:
[1] = test system: CD34+ cells; assay: Morphologic analysis of granulocytic differentiation of CD34+ cells; format: cell-based, human; conditions: for neutrophil morphologic differentiation, promyelocyte to segmented stage (in words): G-CSF 25 ng/ml or Am80 2.5 nM; for efficacy as inducer of granulocytic differentiation (in words): CD34+ cells, FIG. 6, day 12-13
Method: (§1) Normal human primitive umbilical cord blood CD34+ cells were from AllCells (Emeryville, Calif.). CD34+ cells were expanded^29 about 50× by using StemSpan serum-free medium (StemCell Technologies, Vancouver, Canada) for 6 days according to the manufacturer's protocol. To induce granulopoiesis, CD34+ cells were cultured with myeloid medium supplemented with 25 ng/ml of G-CSF^17,29 for 6-12 days. Lymphoid and erythroid cells were blocked during granulopoiesis by addition of hydrocortisone and exclusion of erythropoietin.^17, 29 All-trans retinoic acid (RA) was from Sigma (St. Louis, Mo.), while the retinoid agonists Am80, CH55, and IT-YA-01115 (ITYA) were from Research Foundation ITSUU Laboratory (Tokyo, Japan). Each retinoid compound was dissolved in ethanol. The experimentally determined conditions, using 25 ng/ml of G-CSF^17,29 or 2.5 nM of Am80 for granulocytic induction of 6 days (FIG. 1), were applied in the studies.
Cell suspensions were cytocentrifuged onto Micro slides, followed by methanol fixation and stained with Wright-Giemsa (Sigma) as described.^17,29 The morphologic indicators of differentiation were evaluated under a Zeiss Axioplan microscope, and images were color balanced with Adobe Photoshop as described.^17
Cells suspended in PBS containing 0.5% BSA and 2 mM EDTA were mixed with anti-CD15 antibodies conjugated to magnetic microbeads (Miltenyi Biotec, Bergish Gladbach, Germany) for incubation of 30 min at 4° C. CD15+ subpopulation was then purified by using magnetic sorter (Miltenyi Biotec, Bergish Gladbach, Germany) according to the manufacturer's protocol.

[2] = test system: CD34+ cells; format: cell-based; conditions: for cell death rate (in words) / cell proliferation (in words): CD34+ cells, FIG. 6B, 6D
Method: as §1, with “[…].” for “Lymphoid and erythroid cells were blocked during granulopoiesis by addition of hydrocortisone and exclusion of erythropoietin.^17, 29 All-trans retinoic acid (RA) was from Sigma (St. Louis, Mo.), while the retinoid agonists Am80, CH55, and IT-YA-01115 (ITYA) were from Research Foundation ITSUU Laboratory (Tokyo, Japan).”
Cell proliferation was determined by cell count with a standard hemocytometer, as described.^17,29 Briefly, equal numbers of cells plated in triplicate were counted for up to 13 days after 72 hr of plating. By using trypan blue exclusion, cell proliferation and its associated cell death in the cultures were measured simultaneously.

[3] = test system: neutrophils induced from CD34+ cells; assay: Degranulation analysis by Western blotting with or without E. coli stimuli; format: cell-based, human; conditions: FIGS. 1, 2
Method: Western blotting (WB) was performed as described.^15 Antibodies for lactoferrin (Abcam, Cambridge, UK), MMP-9 (Merck Chemicals, Darmstadt, Germany), and LL-37 (Biolegend, San Diego, Calif.) were used in analyses.
Cells were incubated with or without E. coli DH5α (MOI of 5; cell to bacteria ratio 1:5) in serum-free DMEM medium for 30 min at 37° C. Both cell pellets and supernatants were collected by 3,000-rpm centrifugation for 7 min. The cell pellets were suspended with 100 μg/ml of gentamicin and incubated at 37° C. for 1 hr, followed by collection of cells and extraction of cellular proteins. The supernatant was filtered with a 0.22-μm filter (Pall corporation, Ann Arbor, Mich.) and proteins in the supernatant were then concentrated by using an Amicon Ultra-4 centrifugal filter unit designed to collect proteins with a mass greater than 3,000 daltons (Millipore, Billerica, Mass.). The quantity of the proteins was measured by using Bio-Rad DC Protein Assay (Hercules, Calif.).^29 The change in granule protein levels with or without E. coli stimuli was analyzed in parallel by WB.

[4] = test system: neutropenic mice; assay: Neutrophil recovery in CPA-induced neutropenic mice; format: in vivo, C57BL6/J mice
[5] = test system: acute promyelocytic leukemia (APL); conditions: APL patients; cited from earlier work
[6] = test system: S. aureus; assay: Bactericidal activity in vitro of neutrophils purified from PB of treated neutropenic mice
Method: Each 5×10^5 to 2×10^6 of freshly purified PBN as well as ex vivo-induced GIN and AIN were suspended with 500 μl of culture medium (DMEM with 10% of FBS) in 1.5-ml tubes. Cells were incubated with log-phase Escherichia coli (E. coli) DH5α (provided by collaborator) or Staphylococcus aureus (S. aureus; ATCC) at an MOI of 5 or 10 at 37° C. for 15, 30, and/or 60 min, whereas bacteria in the absence of cells were used to determine growth. The samples with or without cells were centrifuged at 1000-rpm at each time point. Extracellular bacteria in the presence of cells were collected from the supernatants, and enumerated by plating different dilutions (20 μL each) on blood agar. Cell pellets collected from the samples infected with bacteria were further incubated with 100 μg/ml of gentamicin (Sigma) for 1 hr at 37° C. to kill external bacteria. Cells were then washed twice and lysed with 100 μL of 0.5% Triton X-100. Different-dilution aliquots (20 μL for each) of viable intracellular bacteria recovered from the cell lysates were plated on blood agar. The numbers of extracellular and viable intracellular bacteria at each time point were determined by CFU counts as described,^5,30 while the number of phagocytosed and killed bacteria was based on the counts of extracellular and viable intracellular bacteria to the number of relevant bacteria control in the neutrophil-free condition.^5,30

Molecule	neutrophil morphologic differentiation, promyelocyte to segmented stage (in words) ([1]; 6 days)	granulocytic differentiation (in words) ([1]; Am80 2.5 nM, 6 days)	efficacy as inducer of granulocytic differentiation (in words) [1]	toxicity (in words) ([2]; Am80 2.5 nM, 6 days)	cell death (in words) ([2]; Am80 10 nM)	cell death rate (in words) [2]	cell proliferation (in words) [2]	granulocytic morphologic differentiation and granule production/secretion compared with G-CSF (in words) [3]	neutrophil recovery (in words) ([4]; day 3 post-CPA, Am80 5 mg/kg vs G-CSF of 250 μg, lower level of Ficoll-paque)	efficiency relative to RA or other retinoids as differentiation therapy [5]	toxicity relative to RA or other retinoids (in words) [5]	efficacy of mobilized neutrophils against S aureus infection (in words) [6]	monocytes induced ([1]; G-CSF 25 ng/ml, 6 days)	granulocytic differentiation and monocytic induction by treatment time (in words) ([1]; G-CSF for 6, 9 and 12 days)	neutrophil recovery (in words) ([4]; day 5, injection for 2 consecutive days)
CC1(C)CCC(C)(C)c2cc(NC(=O)c3ccc(C(=O)O)cc3)ccc21 [Am80, tamibarotene]	sufficiently induced	profoundly induced granulocytic differentiation with negligible monocytic induction	promote granulocytic differentiation with similar effectiveness	less toxicity than 5 nM of Am80	induced more cell death	lower than seen with either CH55 or RA	inhibited cell proliferation	more effective than G-CSF	competitive neutrophil recovery	approximately 10 fold	lower toxicity	significantly more efficacious against S aureus infection than those by G-CSF	–	–	–
CC(C)(C)c1cc(C(=O)/C=C/c2ccc(C(=O)O)cc2)cc(C(C)(C)C)c1 [CH55]	–	–	promote granulocytic differentiation with similar effectiveness	–	–	–	inhibited cell proliferation	–	–	–	–	–	–	–	–
CC1=C(/C=C/C(C)=C/C=C/C(C)=C/C(=O)O)C(C)(C)CCC1 [RA, all-trans retinoic acid]	–	–	promote granulocytic differentiation with similar effectiveness	–	–	–	inhibited cell proliferation	–	–	–	–	–	–	–	–
G-CSF: recombinant granulocyte colony-stimulating factor (protein, UniProt P09919 31-207, looked up) Granulocyte …: TPLGPASSLPQSFLLKCLEQVRKIQGDGAALQEKLVSECATYKLCHPEELVLLGHSLGIPWAPLSSCPSQALQLAGCLSQLHSGLFLYQGLLQALEGISPELGPTLDTLQLDVADFATTIWQQMEELGMAPALQPTQGAMPAFASAFQRRAGGVLVASHLQSFLEVSYRVLRHLAQP	induced more myeloblasts as well as promyelocytes and myelocytes than banded and segmented neutrophils	–	significantly less efficacious	–	–	lower rate of cell death compared to RA	greater cell proliferation	–	–	–	–	–	about 10%	more effective granulocytic differentiation with the lowest rate of monocytic induction on day 6	remarkably accelerated neutrophil recovery

Source: patent publication US11116738B2, “Methods for treating neutropenia using retinoid agonists” (CHILDREN'S HOSPITAL LOS ANGELES, priority 2012, dated 2021)
